Laboratory results as given in patent US8501752B2, “Methods for treating cancer and other pathological proliferating disorders by inhibiting mitosis using pyrrolo[2,3-d]pyrimidines” (Duquesne University of the Holy Ghost, priority 2005, dated 2013).
Entries after “also recorded” stand apart in the source; their conditions may differ. Read-outs that look alike come from different tables or passages of the source.

What was measured:
MCF-7 cells = test: Cytotoxicity, drug-sensitive MCF-7 cells; settings: mean ± SEM for 3 experiments
Source text: These cell lines are resistant to anticancer drugs due to overexpression of the transport proteins P-glycoprotein or MRP1.

SK-MEL-28 = test: NCI IVCLSP growth inhibition (SRB), SK-MEL-28; assay type: cell-based, human; settings: 48 h drug incubation
Protocol: (§1) FIG. 1 presents nine compounds that were tested using the National Cancer Institute (NCI) 60 human tumor cell lines. The cells lines, which represent leukemia, melanoma, and cancers of the lung, colon, brain, ovary, breast, prostate, and kidney, are listed in Table 1.
(§2) Compounds 1-9 were tested according to the NCI Developmental Therapeutics Program (DTP) In Vitro Cell Line Screening Project (IVCLSP). […] Methodology for testing under the IVCLSP is as follows: The human tumor cell lines of the cancer screening panel are grown in RPMI 1640 medium containing 5% fetal bovine serum and 2 mM L-glutamine. […]
(§3) Following drug addition, the plates are incubated for an additional 48 h at 37° C., 5% CO2, 95% air, and 100% relative humidity. […] Bound stain is subsequently solubilized with 10 mM trizma base, and the absorbance is read on an automated plate reader at a wavelength of 515 nm. […] Using the seven absorbance measurements [time zero, (Tz), control growth, (C), and test growth in the presence of drug at the five concentration levels (Ti)], the percentage growth is calculated at each of the drug concentrations levels. Percentage growth inhibition is calculated as: [(Ti−Tz)/(C−Tz)]×100 for concentrations for which Ti>/=Tz [(Ti−Tz)/Tz]×100 for concentrations for which Ti<Tz.
(§4) Three dose response parameters are calculated for each experimental agent. […]

SF-539 = test: NCI IVCLSP growth inhibition (SRB), SF-539; assay type: cell-based, human; settings: 48 h drug incubation
Protocol: as §1, §2, §3, §4

CAKI-1 = test: NCI IVCLSP growth inhibition (SRB), CAKI-1; assay type: cell-based, human; settings: 48 h drug incubation
Protocol: as §1, §2, §3, §4

NCI-H226 = test: NCI IVCLSP growth inhibition (SRB), NCI-H226; assay type: cell-based, human; settings: 48 h drug incubation
Protocol: as §1, §2, §3, §4

BT-549 = test: NCI IVCLSP growth inhibition (SRB), BT-549; assay type: cell-based, human; settings: 48 h drug incubation
Protocol: as §1, §2, §3, §4

[1] = system: NCI 60 human tumor cell lines; test: NCI IVCLSP growth inhibition, whole panel (text summaries); assay type: cell-based
Protocol: as §1
Compounds 1-9 were tested according to the NCI Developmental Therapeutics Program (DTP) In Vitro Cell Line Screening Project (IVCLSP). […] Methodology for testing under the IVCLSP is as follows: The human tumor cell lines of the cancer screening panel are grown in RPMI 1640 medium containing 5% fetal bovine serum and 2 mM L-glutamine. For a typical screening experiment, cells are inoculated into 96 well microtiter plates in 100 μL at plating densities ranging from 5,000 to 40,000 cells/well depending on the doubling time of individual cell lines. After cell inoculation, the microtiter plates are incubated at 37° C., 5% CO2, 95% air and 100% relative humidity for 24 h prior to addition of experimental drugs.
After 24 h, two plates of each cell line are fixed in situ with TCA, to represent a measurement of the cell population for each cell line at the time of drug addition (Tz). Experimental drugs are solubilized in dimethyl sulfoxide at 400-fold the desired final maximum test concentration and stored frozen prior to use. At the time of drug addition, an aliquot of frozen concentrate is thawed and diluted to twice the desired final maximum test concentration with complete medium containing 50 μg/ml gentamicin. Additional four, 10-fold or ½ log serial dilutions are made to provide a total of five drug concentrations plus control. Aliquots of 100 μl of these different drug dilutions are added to the appropriate microtiter wells already containing 100 μl of medium, resulting in the required final drug concentrations.
Following drug addition, the plates are incubated for an additional 48 h at 37° C., 5% CO2, 95% air, and 100% relative humidity. For adherent cells, the assay is terminated by the addition of cold TCA. Cells are fixed in situ by the gentle addition of 50 μl of cold 50% (w/v) TCA (final concentration, 10% TCA) and incubated for 60 minutes at 4° C. The supernatant is discarded, and the plates are washed five times with tap water and air dried. Sulforhodamine B (SRB) solution (100 μl) at 0.4% (w/v) in 1% acetic acid is added to each well, and plates are incubated for 10 minutes at room temperature. After staining, unbound dye is removed by washing five times with 1% acetic acid and the plates are air dried. Bound stain is subsequently solubilized with 10 mM trizma base, and the absorbance is read on an automated plate reader at a wavelength of 515 nm. For suspension cells, the methodology is the same except that the assay is terminated by fixing settled cells at the bottom of the wells by gently adding 50 μl of 80% TCA (final concentration, 16% TCA). Using the seven absorbance measurements [time zero, (Tz), control growth, (C), and test growth in the presence of drug at the five concentration levels (Ti)], the percentage growth is calculated at each of the drug concentrations levels. Percentage growth inhibition is calculated as: [(Ti−Tz)/(C−Tz)]×100 for concentrations for which Ti>/=Tz [(Ti−Tz)/Tz]×100 for concentrations for which Ti<Tz.
Three dose response parameters are calculated for each experimental agent. […] The drug concentration resulting in total growth inhibition (TGI) is calculated from Ti=Tz. […]

NCI-H322M = test: NCI IVCLSP growth inhibition (SRB), NCI-H322M; assay type: cell-based, human; settings: 48 h drug incubation
Protocol: as §1, §2, §3, §4

HCT-116 = test: NCI IVCLSP growth inhibition (SRB), HCT-116; assay type: cell-based, human; settings: 48 h drug incubation
Protocol: as §1, §2, §3, §4

A498 = test: NCI IVCLSP growth inhibition (SRB), A498; assay type: cell-based, human; settings: A498; 48 h drug incubation, SRB
Protocol: as §1, §2, §3, §4

SNB-19 = test: NCI IVCLSP growth inhibition (SRB), SNB-19; assay type: cell-based, human; settings: 48 h drug incubation
Protocol: as §1, §2, §3, §4

UO-31 = test: NCI IVCLSP growth inhibition (SRB), UO-31; assay type: cell-based, human; settings: 48 h drug incubation
Protocol: as §1, §2, §3, §4

SR = test: NCI IVCLSP growth inhibition (SRB), SR; assay type: cell-based, human; settings: 48 h drug incubation
Protocol: as §1, §2, §3, §4

SW-620 = test: NCI IVCLSP growth inhibition (SRB), SW-620; assay type: cell-based, human; settings: 48 h drug incubation
Protocol: as §1, §2, §3, §4

RPM1-8226 = test: NCI IVCLSP growth inhibition (SRB), RPM1-8226; assay type: cell-based, human; settings: 48 h drug incubation
Protocol: as §1, §2, §3, §4

[2] = system: T24 human bladder carcinoma cells; test: Cytotoxicity, T24 cells; assay type: cell-based; settings: mean ± SEM for 3 experiments

**Q.** For `COc1cc(CCc2cn(Cc3ccccc3)c3nc(N)nc(C)c23)cc(OC)c1OC` [Compound 1], which IC50 (MCF-7 cells; read-out: Cytotoxicity IC50, MCF-7) is on record?
**A.** 300 ± 160 nM

**Q.** What about the IC50 (MCF-7 cells; read-out: drug sensitivity (IC50), MCF-7, Table 4) of the same compound?
**A.** 280 ± 10 nM

**Q.** And the GI50 (SK-MEL-28)?
**A.** > 1000 nM

**Q.** What about the GI50 (SF-539) of the same compound?
**A.** 74.5 nM

**Q.** What about the GI50 (CAKI-1) of the same compound?
**A.** 366 nM

**Q.** And the GI50 (NCI-H226)?
**A.** 195 nM

**Q.** What about the GI50 (BT-549) of the same compound?
**A.** > 1000 nM

**Q.** What about the “GI50 values, level across the tumor cell lines (in words)” value ([1]; NCI 60 tumor panel) of the same compound?
**A.** nanomolar to submicromolar levels; also recorded: single or two digit nanomolar levels against 16 tumor cell lines; also recorded: submicromolar levels against 40 tumor cell lines; also recorded: micromolar levels against 3 tumor cell lines

**Q.** And the “average GI50” value ([1]; requirement for a microtubule-targeting agent, satisfied)?
**A.** one μM or less

**Q.** And the GI50 (NCI-H322M)?
**A.** 581 nM

**Q.** And the GI50 (HCT-116)?
**A.** 286 nM

**Q.** And the GI50 (A498)?
**A.** 136 nM

**Q.** And the GI50 (SNB-19)?
**A.** 273 nM

**Q.** And the GI50 (UO-31)?
**A.** 347 nM

**Q.** And the GI50 (SR)?
**A.** 31.4 nM

**Q.** What about the GI50 (SW-620) of the same compound?
**A.** 236 nM

**Q.** And the GI50 (RPM1-8226)?
**A.** 439 nM

**Q.** What about the IC50 [2] of the same compound?
**A.** 280 ± 100 nM
